Laboratory results taken from paper PMC7179112, “Antimicrobial, Antioxidant, and Anticancer Activities of Some Novel Isoxazole Ring Containing Chalcone and Dihydropyrazole Derivatives” (Molecules, 2020).
In brackets after ≈: the same amount, converted by molar mass.

What was measured:
Pseudomonas aeruginosa = experiment: Antibacterial activity, serial tube dilution method; format: cell-based; conditions: Pseudomonas aeruginosa; Gram-negative; serial tube dilution; read-out: MIC P aeruginosa
Description: (§1) The target chalcones (17–31) and pyrazolines (32–46) were tested for their antimicrobial activities by serial tube dilution method against two types of bacterial and fungal strains (Table 1 and Table 2). The bacterial strains used for the testing, including Gram-positive Staphylococcus aureus and Gram-negative Pseudomonas aeruginosa, whereas the fungal strains employed were Aspergillus niger and Candida tropicalis.
(§2) The antibacterial and antifungal activity of the novel chalcones (17 to 31) and dihydropyrazoles (32 to 46) against the selected bacterial and fungal strains was assessed by following the procedure described in our previous paper.

Staphylococcus aureus = experiment: as above; format: cell-based; conditions: Staphylococcus aureus; Gram-positive; serial tube dilution; read-out: MIC S aureus
Description: as §1, §2

Aspergillus niger = experiment: Antifungal activity, serial tube dilution method; format: cell-based
Description: as §1, §2

Candida tropicalis = experiment: Antifungal activity, serial tube dilution method; format: cell-based; conditions: read-out: MIC C tropicalis
Description: as §1, §2

[1] = DPPH free radical scavenging assay; conditions: antioxidant activity; average of three independent experiments
Description: The antioxidant activity of all 30 compounds was assessed using 1,1-diphenyl-2-picrylhydrazine (DPPH) free radical scavenging assay and the results are the average of three independent experiments (Table 3). Gallic acid was employed as a positive control. […] In the disubstituted series (20–25), compound 25 with substitutions at position 3 and 5 on the phenyl ring gave the highest activity of 9 µg/mL.
The purpose of this study was to evaluate the antioxidant activity of chalcones and pyrazolines using the DPPH free radical assay. The percentage of antioxidant activity (AA%) of all the compounds was assessed by the DPPH free radical assay. The measurement of the DPPH radical scavenging activity was performed according to methodology described by Brand-Williams et al. The samples were reacted with the stable DPPH radical in an ethanol solution. A 0.1 mM solution of DPPH was prepared by dissolving DPPH in methanol. Gallic acid was taken as a reference standard and different concentrations of test samples (5–100 µg/mL) and standard (1.0, 2.5, and 5.0 µg/mL) were prepared using methanol. One milliliter of 0.1 mM DPPH solution was added to 3 mL of all concentrations of test samples and standard separately. These mixtures were kept in dark for about 30 min and the absorbance was measured at 517 nm. The capability to scavenge the DPPH radical was calculated using the formula:(1) DPPH scavanged (%)= Absorbance of control−Absorbance of sample/Absorbance of control∗100 when DPPH reacted with an antioxidant compound and was reduced, the change in color (from deep violet to light yellow) was read [Absorbance (Abs)] at 517 nm after […] of reaction using a UV-VIS spectrophotometer.

[2] = tested on: prostate cancer cell line, DU-145; experiment: MTT assay anticancer activity; format: cell-based; conditions: for IC50: Homo sapiens, MTT assay, mean ± SD (n = 3); for Anticancer potency MIC: given as MIC in text/Figure 3
Description: All the 30 compounds were evaluated for their anticancer potency against the prostate cancer cell line, DU-145, employing colorimetric tetrazolium dye (MTT) assay. […] Among the disubstituted series 20–25, substitution at position 3 and 4 (compound 24) produced the best activity but was lower than the standard. […] Similar phenomena can be seen among the dihydropyrazole series.
The in vitro anticancer activity of chalcones (17 to 31) and dihydropyrazoles (32 to 46) was evaluated by the Mosmann’s MTT assay as described previously.

Human Normal Cells (L02) = experiment: MTT assay toxicity on normal cells; format: cell-based
[3] = tested on: Aspergillus niger and Candida tropicalis; experiment: Antifungal activity (strain not named); format: cell-based; conditions: text/figure value, strain not named
Description: as §1, §2

| SMILES | MIC (Pseudomonas aeruginosa) | MIC (Staphylococcus aureus) | MIC (Aspergillus niger) | MIC (Candida tropicalis) | DPPH assay IC50 [1] | IC50 [2] | IC50 (Human Normal Cells (L02)) | Anticancer potency MIC [2] | MIC [3] |
| --- | --- | --- | --- | --- | --- | --- | --- | --- | --- |
| O=C(O)c1cn(C2CC2)c2cc(N3CCNCC3)c(F)cc2c1=O [Ciprofloxacin, reference compound] | 2 µg/mL (≈ 6.04 µM) | 2 µg/mL (≈ 6.04 µM) |  |  |  |  |  |  |  |
| COc1ccc(/C=C/C(=O)c2ccno2)cc1 [Compound 17] | 8 µg/mL (≈ 34.9 µM) | 4 µg/mL (≈ 17.4 µM) | 8 µg/mL (≈ 34.9 µM) | 8 µg/mL (≈ 34.9 µM) | 33 ± 1 µg/mL | 32 ± 2 µg/mL (≈ 140 µM) | > 40 µg/mL |  |  |
| COc1ccccc1/C=C/C(=O)c1ccno1 [Compound 19] | 4 µg/mL (≈ 17.4 µM) | 4 µg/mL (≈ 17.4 µM) | 8 µg/mL (≈ 34.9 µM) | 16 µg/mL (≈ 69.8 µM) | 32 ± 2 µg/mL | 36 ± 1 µg/mL (≈ 157 µM) | > 40 µg/mL |  |  |
| COc1cccc(/C=C/C(=O)c2ccno2)c1OC [Compound 20] | 64 µg/mL (≈ 247 µM) | 32 µg/mL (≈ 123 µM) | 64 µg/mL (≈ 247 µM) | 32 µg/mL (≈ 123 µM) | 24 ± 1 µg/mL | 22 ± 1 µg/mL (≈ 84.9 µM) | > 40 µg/mL |  |  |
| COc1ccc(/C=C/C(=O)c2ccno2)c(OC)c1 [Compound 21] | 4 µg/mL (≈ 15.4 µM) | 2 µg/mL (≈ 7.71 µM) | 8 µg/mL (≈ 30.9 µM) | 16 µg/mL (≈ 61.7 µM) | 18 ± 2 µg/mL | 29 ± 2 µg/mL (≈ 112 µM) | > 40 µg/mL |  |  |
| COc1ccc(OC)c(/C=C/C(=O)c2ccno2)c1 [Compound 22] | 32 µg/mL (≈ 123 µM) | 32 µg/mL (≈ 123 µM) | 64 µg/mL (≈ 247 µM) | 64 µg/mL (≈ 247 µM) | 26 ± 2 µg/mL | 38 ± 1 µg/mL (≈ 147 µM) | > 40 µg/mL |  |  |
| COc1cccc(OC)c1/C=C/C(=O)c1ccno1 [Compound 23] | 4 µg/mL (≈ 15.4 µM) | 4 µg/mL (≈ 15.4 µM) | 4 µg/mL (≈ 15.4 µM) | 4 µg/mL (≈ 15.4 µM) | 16 ± 1 µg/mL | 33 ± 2 µg/mL (≈ 127 µM) | > 40 µg/mL |  |  |
| COc1ccc(/C=C/C(=O)c2ccno2)cc1OC [Compound 24] | 32 µg/mL (≈ 123 µM) | 64 µg/mL (≈ 247 µM) | 128 µg/mL (≈ 494 µM) | 64 µg/mL (≈ 247 µM) | 29 ± 1 µg/mL | 6 ± 2 µg/mL (≈ 23.1 µM) | > 40 µg/mL |  |  |
| COc1cc(OC)c(OC)cc1/C=C/C(=O)c1ccno1 [Compound 27] | 16 µg/mL (≈ 55.3 µM) | 16 µg/mL (≈ 55.3 µM) | 32 µg/mL (≈ 111 µM) | 32 µg/mL (≈ 111 µM) | 7 ± 2 µg/mL | 26 ± 3 µg/mL (≈ 89.9 µM) | > 40 µg/mL |  |  |
| COc1ccc(/C=C/C(=O)c2ccno2)c(F)c1OC [Compound 30] | 4 µg/mL (≈ 14.4 µM) | 4 µg/mL (≈ 14.4 µM) | 16 µg/mL (≈ 57.7 µM) | 16 µg/mL (≈ 57.7 µM) | 45 ± 2 µg/mL | 5 ± 2 µg/mL (≈ 18 µM) | > 40 µg/mL |  |  |
| COc1cc(Cl)c(/C=C/C(=O)c2ccno2)c(OC)c1 [Compound 31] | 2 µg/mL (≈ 6.81 µM) | 2 µg/mL (≈ 6.81 µM) | 4 µg/mL (≈ 13.6 µM) | 4 µg/mL (≈ 13.6 µM) | 48 ± 1 µg/mL | 16 ± 2 µg/mL (≈ 54.5 µM) | > 40 µg/mL |  |  |
| COc1cccc(C2CC(c3ccno3)=NN2C(N)=O)c1 (stereo not drawn) [Compound 33] | 128 µg/mL (≈ 447 µM) | 128 µg/mL (≈ 447 µM) | 64 µg/mL (≈ 224 µM) | 64 µg/mL (≈ 224 µM) | 51 ± 2 µg/mL | 18 ± 2 µg/mL (≈ 62.9 µM) | > 40 µg/mL |  |  |
| COc1cccc(C2CC(c3ccno3)=NN2C(N)=O)c1OC (stereo not drawn) [Compound 35] | 64 µg/mL (≈ 202 µM) | 64 µg/mL (≈ 202 µM) | 16 µg/mL (≈ 50.6 µM) | 16 µg/mL (≈ 50.6 µM) | 32 ± 1 µg/mL | 16 ± 2 µg/mL (≈ 50.6 µM) | > 40 µg/mL |  |  |
| COc1ccc(C2CC(c3ccno3)=NN2C(N)=O)c(OC)c1 (stereo not drawn) [Compound 36] | 8 µg/mL (≈ 25.3 µM) | 8 µg/mL (≈ 25.3 µM) | 4 µg/mL (≈ 12.6 µM) | 8 µg/mL (≈ 25.3 µM) | 25 ± 2 µg/mL | 26 ± 2 µg/mL (≈ 82.2 µM) | > 40 µg/mL |  |  |
| COc1ccc(OC)c(C2CC(c3ccno3)=NN2C(N)=O)c1 (stereo not drawn) [Compound 37] | 32 µg/mL (≈ 101 µM) | 64 µg/mL (≈ 202 µM) | 32 µg/mL (≈ 101 µM) | 32 µg/mL (≈ 101 µM) | 39 ± 2 µg/mL | 31 ± 2 µg/mL (≈ 98 µM) | > 40 µg/mL |  |  |
| COc1ccc(C2CC(c3ccno3)=NN2C(N)=O)cc1OC (stereo not drawn) [Compound 39] | 64 µg/mL (≈ 202 µM) | 128 µg/mL (≈ 405 µM) | 32 µg/mL (≈ 101 µM) | 32 µg/mL (≈ 101 µM) | 49 ± 1 µg/mL | 4 ± 2 µg/mL (≈ 12.6 µM) | > 40 µg/mL | 4 µg/mL |  |
| COc1cc(OC)cc(C2CC(c3ccno3)=NN2C(N)=O)c1 (stereo not drawn) [Compound 40] | 256 µg/mL (≈ 809 µM) | 256 µg/mL (≈ 809 µM) | 64 µg/mL (≈ 202 µM) | 64 µg/mL (≈ 202 µM) | 12 ± 1 µg/mL | 8 ± 2 µg/mL (≈ 25.3 µM) | > 40 µg/mL |  |  |
| COc1cc(OC)c(C2CC(c3ccno3)=NN2C(N)=O)cc1OC (stereo not drawn) [Compound 42] | 16 µg/mL (≈ 46.2 µM) | 32 µg/mL (≈ 92.4 µM) | 16 µg/mL (≈ 46.2 µM) | 16 µg/mL (≈ 46.2 µM) | 10 ± 2 µg/mL | 18 ± 2 µg/mL (≈ 52 µM) | > 40 µg/mL |  |  |
| COc1cc(C2CC(c3ccno3)=NN2C(N)=O)cc(OC)c1OC (stereo not drawn) [Compound 44] | 256 µg/mL (≈ 739 µM) | 64 µg/mL (≈ 185 µM) | 16 µg/mL (≈ 46.2 µM) | 16 µg/mL (≈ 46.2 µM) | 12 ± 2 µg/mL | 5 ± 2 µg/mL (≈ 14.4 µM) | > 40 µg/mL |  |  |
| CC(=O)O[C@@]12CO[C@@H]1C[C@H](O)[C@@]1(C)C(=O)[C@H](O)C3=C(C)[C@@H](OC(=O)[C@H](O)[C@@H](NC(=O)OC(C)(C)C)c4ccccc4)C[C@@](O)([C@@H](OC(=O)c4ccccc4)[C@H]21)C3(C)C [Docetaxel, reference compound] |  |  |  |  |  | 5 µg/mL (≈ 6.19 µM) |  | 5 µg/mL |  |
| OC(Cn1cncn1)(Cn1cncn1)c1ccc(F)cc1F [Fluconazole, reference compound] |  |  | 1 µg/mL (≈ 3.27 µM) | 1 µg/mL (≈ 3.27 µM) |  |  |  |  | 1 µg/mL (≈ 3.27 µM) |
| O=C(O)c1cc(O)c(O)c(O)c1 [Gallic acid, reference compound] |  |  |  |  | Gallic acid 5 ± 1 µg/mL |  |  |  |  |
